The source of these data is patent US20250064775A1, “SELECTIVE ELIMINATION OF SENESCENT CELLS BY FERROPTOSIS INDUCTION” (Trustees of Tufts College, priority 2022, published 2025).

In assay [1] the test system is senescent cells induced with 10 Gy of IR. Put plainly: Cell survival (CCK8) of IR-induced senescent cells vs non-senescent controls. Format: cell-based. As for the experimental part:
(§1) A. RNA levels of GPX4 in cells induced to senesce by ionizing radiation (IR), mitochondrial dysfunction (MiDAS), or lentiviral overexpression of […] [SEN(RAS)]. Non-senescent cells induced by either mock treatment (NS) or empty lentiviral vector (Vector) served as controls. RNA levels measure by quantitative RT-PCR and normalized to actin. B—C. Cells were induced to senesce by 24 h of treatment with 250 nM doxorubicin [SEN(DOXO)] or control [NS (DMSO)], and 10 days later were given the indicated drug doses for 24 h. D. Cells were induced to senesce with 10 Gy of IR and 10 days later given the indicated drug doses for 24 h. E-F. Cells were induced to senesce with 10 Gy of IR and 10 days later given the indicated drug doses for 72 h. Cell survival was then measured by colorimetric assay (CCK8). *=p<0.01
Preliminary data: Senescent cells appear primed to undergo ferroptosis. Not only do they elevate ALOX enzymes (FIG. 1A) and PUFA levels (FIG. 1B), but the lipid hydroxide products of these enzymes are elevated (FIG. 1C), as are byproducts of lipid peroxidation, (e.g. 4-HNE and 4-HDDE (FIG. 1D)). Lipid peroxidation-sensitive probes, e.g., C11-BODIPY, indicate increased lipid peroxidation during senescence. Furthermore, senescent cells accumulate iron in their cytosol. […]

Assay [2] deals with IR-induced senescent [SEN(IR)] cells. Put plainly: Rescue of RSL3-induced ferroptosis in IR-induced senescent cells (CCK8 survival). Format: cell-based. Here is the method: Non-senescent (NS: mock irradiated) or IR-induced senescent [SEN(IR)] cells were treated 10 days after irradiation with […] RSL3 and the indicated ferroptosis antagonist, followed by cell survival measurement by CCK8 assay. A. Cells were treated with ferrostatin-1 (FSN1—1 μM) at the same time as RSL3. B. Cells were given the ALOX5 and ALOX15 inhibitor zileuton (Zil—50 μM) at the same time as RSL3. C. Cells were given iron chelators deferoxamine (DFX—25 μM) or salicylaldehyde isonicotinoyl hydrazine (SIH—100 μM) at the same time as RSL3. D. Cells were given ACSL4 inhibitors rosiglitazone (ROSI—100 μM) or PRGL493 (PRGL—100 μM) for 72 h prior to RSL3. ***=p<0.001
The inventor next sought to further elucidate the potential mechanisms for induction of ferroptosis in senescent cells by the disclosed senolytic drugs. The inventor rescued ferroptosis in senescent cells induced by contacting the cells with RSL3 and ferrostatin-1 (FSN1), which inhibits lipid peroxidation (FIG. 6A), zileuton (5- and 15-lipoxygenase inhibitor), which protects cells from lipoxygenase-induced membrane peroxidation (FIG. 6B), iron chelators deferoxamine or salicylaldehyde isonicotinoyl hydrazine (FIG. 6C), and ACSL4 inhibitors rosiglitazone or PRGL493 (FIG. 6D).

In assay [3] the test system is PTGES, ALOX5, LTC4S, LTA4H and ALOX5AP mRNA in liver. Put plainly: Liver oxylipin synthase mRNAs by qPCR in chemotherapy-induced senescence model. Format: in vivo, p16-3MR mice. To be noted: FIG. 3B. As for the experimental part:
A. IMR-90 cells were proliferative in 10% serum, made quiescent by incubation for 3 days in 0.2% serum, or made senescent by treatment with 10 Gy X-rays (IR) or ethidium bromide to induce mitochondrial-dysfunction induced senescence (MiDAS). Lipids were extracted from proliferating (PRO—10%), quiescent (QUI—0.2%), IR-induced senescent (SEN(IR)—10% or 0.2% serum), or mitochondrial dysfunction-associated senescent (MiDAS-0.2%) cells and analyzed by liquid chromatography combined with mass spectrometry (LC-MS). Putative oxylipins (A) were detected in control and senescent cells. B. p16-3MR mice were given a single dose (10 mg/kg) of doxorubicin (DOXO) or phosphate-buffered saline (PBS) by intraperitoneal (i.p.) injection. After 5 days, mice were given GCV (25 mg/kg) or vehicle by i.p. injection for 5 consecutive days. Livers were harvested on day 10 and analyzed for oxylipin synthase mRNAs by qPCR. Heat maps indicate averages of at least 5 mice (*=p<0.05, 1-way ANOVA). C. C57BL/6 mice were aged for 6 (young) or 24 (old) months. Kidneys were harvested from mice and analyzed for oxylipin synthase RNA levels by qPCR.
Briefly, mice were treated with either control (phosphate buffered saline, (PBS)), doxorubicin (DOXO), or the combination of DOXO and ganciclovir (GCV). GCV is known to eliminate senescent cells in the liver at the concentrations administered, i.e., 25 mg/kg.

In assay [4] the test system is senescent cells. Put plainly: Ferroptosis induction in senescent relative to non-senescent cells (general statement). Format: cell-based. To be noted: general statement in description. From the text:
While many of these oxylipins can drive pathology, such as in the case of pulmonary fibrosis, this may also result in a vulnerability that allows them to be targeted for elimination. Among the oxylipin synthesis enzymes elevated during senescence are arachidonate 5-, 12-, 15-, and 15B-lipoxygenases (ALOX5, 12, 15, and 15B), as well as ALOX5 activating protein (ALOX5AP). These lipoxygenases produce oxylipins, such as the leukotrienes, by acting on free arachidonic acid inside of the cell. However, these enzymes may also peroxidize arachidonic acid that is bound (esterified) in the plasma membrane. Lipid peroxides then react with labile iron in the cytosol via Fenton reaction to result in an exponential chain reaction of lipid peroxidation, ultimately resulting in a form of cell death known as “ferroptosis”. […] Other compounds, such as artemisinin and its derivatives interact with labile iron to increase lipid peroxidation. Since senescent cells also show elevated levels of labile iron, in addition to lipoxygenases, these cells are especially sensitive to induction of ferroptosis. […] As used herein, “senolytic” refers to the property of a molecule, compound, or composition to selectively kill senescent cells. Thus, ML-210, RSL3, FIN56, erastin, artemisinin, and related molecules are useful for the treatment of chronic degenerative diseases that are characterized by cellular senescence.

Assay [5] relates to senescent cells [SEN(DOXO)]. As to the kind of experiment: Cell survival (CCK8) of doxorubicin-induced senescent cells vs non-senescent controls. Format: cell-based. The following applies: SEN(DOXO) (250 nM doxorubicin 24 h) vs NS (DMSO); drug given 10 days later for 24 h; FIG. 5B-C. As for the experimental part: as §1, with “*=p<0.01 Preliminary data: Senescent cells appear primed to undergo ferroptosis. Not only do they elevate ALOX enzymes (FIG. 1A) and PUFA levels (FIG. 1B), but the lipid hydroxide products of these enzymes are elevated (FIG. 1C), as are byproducts of lipid peroxidation, (e.g. 4-HNE and 4-HDDE (FIG. 1D)). Lipid peroxidation-sensitive probes, e.g., C11-BODIPY, indicate increased lipid peroxidation during senescence. Furthermore, senescent cells accumulate iron in their cytosol. […]” for “*=p<0.01”

Setting [6] is: given at the same time as 0.1 mM RSL3, FSN1 1 μM, Zil 50 μM, DFX 25 μM, SIH 100 μM, FIG. 6A-C.

Turning to `C[C@@H]1CC[C@H]2[C@@H](C)C(=O)O[C@@H]3O[C@@]4(C)CC[C@@H]1[C@]32OO4` [artemisinin], in assay [1] (10 Gy IR, drug given 10 days later for 72 h, several concentrations, FIG. 5E-5F), the “cell death in senescent cells vs control cells (cell survival, CCK8)” value was “induced significantly more cell death in senescent cells than control cells”.

Regarding `CC(=O)NC1=NC(c2cn(-c3ccccc3)nc2-c2ccc(C)o2)n2c(nc3ccccc32)N1` (stereo not drawn) [PRGL493], the “rescue of RSL3-induced ferroptosis in senescent cells (cell survival, CCK8)” value (from here on “rescue of RSL3-induced ferroptosis”) in assay [2] (given for 72 h prior to 0.1 mM RSL3, ROSI 100 μM, PRGL 100 μM, FIG. 6D) is on record as “rescued induction of ferroptosis in senescent cells”.

As for `CCOC(=O)c1ccc(NC2CCCCC2)c(N)c1` [ferrostatin-1], in assay [2] (setting [6]), the “rescue of RSL3-induced ferroptosis” value is on record as “rescued induction of ferroptosis in senescent cells”.

Take `COc1cccc2c1C(=O)c1c(O)c3c(c(O)c1C2=O)C[C@@](O)(C(=O)CO)C[C@@H]3O[C@H]1C[C@H](N)[C@H](O)[C@H](C)O1` [DOXO, doxorubicin]: the “liver mRNA levels of PTGES, ALOX5, LTC4S, LTA4H and ALOX5AP” value in assay [3] (single dose 10 mg/kg i.p. vs PBS, livers harvested day 10) is given as “DOXO-dependent increase in the mRNA levels”.

As to `O=S(=O)(NC1CCCCC1)c1ccc2c(c1)C(=NO)c1cc(S(=O)(=O)NC3CCCCC3)ccc1-2` [FIN56], in assay [4], the “selective induction of ferroptosis in senescent cells relative to non-senescent cells” value is given as “selectively induces ferroptosis in senescent cells relative to non-senescent cells”.

Consider salicylaldehyde isonicotinoyl hydrazine, for which the “rescue of RSL3-induced ferroptosis” value in assay [2] (setting [6]) is “rescued induction of ferroptosis in senescent cells”.

Consider `Cc1onc(C(=O)N2CCN(C(c3ccc(Cl)cc3)c3ccc(Cl)cc3)CC2)c1[N+](=O)[O-]` [ML-210], for which the “selective induction of ferroptosis in senescent cells (cell survival, CCK8)” value in assay [1] (10 Gy IR senescent vs non-senescent (NS) cells, drug given 10 days later for 24 h, FIG. 5D) was “selectively induced ferroptosis in senescent cells and not control non-senescent (NS) cells”. Also, the “selective induction of ferroptosis in senescent cells relative to non-senescent cells” value in assay [4] is on record as “selectively induces ferroptosis in senescent cells relative to non-senescent cells”.

In the case of `COC(=O)c1ccc([C@H]2c3[nH]c4ccccc4c3CC(C(=O)OC)N2C(=O)CCl)cc1` (stereo partly drawn) [RSL3], the “selective induction of ferroptosis in senescent cells relative to non-senescent cells” value in assay [4] was “selectively induces ferroptosis in senescent cells relative to non-senescent cells”. For the same molecule, the “selective killing of senescent cells (cell survival, CCK8)” value in assay [5] was “selectively killed senescent cells”.

With `CC(c1cc2ccccc2s1)N(O)C(N)=O` (stereo not drawn) [zileuton], in assay [2] (setting [6]), the “rescue of RSL3-induced ferroptosis” value was “rescued induction of ferroptosis in senescent cells”.

`Nc1nc(O)c2ncn(COC(CO)CO)c2n1` [GCV, ganciclovir]: the “effect on DOXO-dependent increase of liver mRNA levels of PTGES, ALOX5, LTC4S, LTA4H and ALOX5AP” value in assay [3] (25 mg/kg i.p. for 5 consecutive days, 5 days after DOXO) is reported as “abrogates the DOXO-dependent increase in the mRNA levels”.
